Here are results for one substance from patent US7767694B2, “Pharmaceutical composition having prokinetic effect” (N-Gene Research Laboratories Inc., priority 2004, dated 2010).

The test has as its system sphincter of Oddi muscle rings. Briefly: Biliary sphincter of Oddi muscle rings with cholecystokinin octapeptide and BGP-15 (isometric tension, organ bath). As to conditions: BGP-15 20 mg/kg daily for 5 days, CCK-8 5 × 10^−7 M, combination: BGP-15 pretreatment 5 days then CCK-8, average of 6.

Description: The sphincter of Oddi was removed from adult male New Zealand white rabbits weighing 3.5-4 kg, and muscle ring of about 3 mm width were prepared. […] The organ bath was maintained at 37° C. and aerated continuously with carbogen (5% of carbon dioxide in oxygen according to European Pharmacopoeia, Edition III). The initial tension was set to 10 mN and the rings were allowed to equilibrate over 1 hour.
In case of each test type, 6 parallel experiments were carried out, and the average of the results obtained was determined. The following test types were made:
treatment with cholecystokinin octapeptide to simulate the effect existing in the living organism,
treatment with organ bath (control group).
In the treatment with cholecystokinin octapeptide, 5×10^-7 M of the polypeptide was employed.

As to Cholecystokinin octapeptide [CCK-8], the Max. relaxation (control 0) is given as 5 mN. Moreover, where the note is “control 10”, the Max. tonic contraction came to 24 mN. Also, for the setting “control 13”, the Frequency of contraction turned out to be 19 c/min. Also, the Max. contraction (control 16) stood at 29 mN.
